Assay results from US4436751A, “Nitrobenzyl monates antibacterial compounds” (Beecham Group Limited, priority 1980, dated 1984).
Converted amounts (≈) assume the structure as drawn. Where two headings read alike, the source gives them in different places.

What was measured:
Type in all cases: cell-based
[1] = test system: M. suipneumoniae LABER; test: Anti-mycoplasmal MIC in vitro, Friis broth agarose (Table 1); settings: Mesomycoplasma hyopneumoniae, 144 h
[2] = test system: M. hyorhinis ATCC 23234; test: as above; settings: Mesomycoplasma hyorhinis, ATCC23234, 144 h
[3] = test system: M. gallisepticum S6; test: as above; settings: Mycoplasmoides gallisepticum
[4] = test system: Bord. bronchiseptica BO8; test: Veterinary bacteria MIC, Diagnostic Sensitivity Test Agar (Table 2); settings: Bordetella bronchiseptica
Experimental: (§1) The values were determined using a two fold serial dilutions in Diagnostic Sensitivity Test Agar with an inoculum of 10^4 organisms and incubation for 18 hours at 37° C.

[5] = test system: Bord. bronchiseptica BO9; test: as above; settings: Bordetella bronchiseptica
Experimental: as §1

[6] = test system: E. Coli E1; test: as above; settings: Escherichia coli
Experimental: as §1

[7] = test system: E. Coli NCTC 10418; test: as above; settings: Escherichia coli
Experimental: as §1

[8] = test system: Past. multocida PA2; test: as above; settings: Pasteurella multocida; Past. multocida PA2; DST Agar, 10^4 organisms, 18 hours 37° C.; read-out: MIC
Experimental: as §1

[9] = test system: S. dublin S7; test: as above; settings: Salmonella enterica
Experimental: as §1

[10] = test system: Staph. aureus B4; test: as above; settings: Staphylococcus aureus; Staph. aureus B4; DST Agar, 10^4 organisms, 18 hours 37° C.; read-out: MIC
Experimental: as §1

[11] = test system: Staph. aureus Oxford; test: as above; settings: Staphylococcus aureus; Staph. aureus Oxford; DST Agar, 10^4 organisms, 18 hours 37° C.; read-out: MIC
Experimental: as §1

[12] = test system: Strep. dylgalactiae SPD1; test: as above; settings: Strep. dylgalactiae SPD1; DST Agar, 10^4 organisms, 18 hours 37° C.; read-out: MIC
Experimental: as §1

[13] = test system: Strep. suis (group D) SPS11; test: as above; settings: Streptococcus suis
Experimental: as §1

[14] = test system: Strep. uberis SPO1; test: as above; settings: Streptococcus uberis; Strep. uberis SPO1; DST Agar, 10^4 organisms, 18 hours 37° C.; read-out: MIC
Experimental: as §1

[15] = test system: Bacillus subtilis 6633; test: Human bacteria MIC, nutrient agar with chocolated horse blood (Table 3)
Experimental: (§2) The values were determined by serial dilutions in nutrient agar with 5% chocolated horse blood after incubations for 18 hours at 37° C.

[16] = test system: Corynebacterium xerosis 9755; test: as above
Experimental: as §2

[17] = test system: E. Coli NCTC 10418; test: as above; settings: Escherichia coli
Experimental: as §2

[18] = test system: Haemophilus influenzae Q1; test: as above
Experimental: as §2

[19] = test system: K. aerogenes A; test: as above; settings: Klebsiella aerogenes
Experimental: as §2

[20] = test system: P. mirabilis 889; test: as above
Experimental: as §2

[21] = test system: Pasteurella multocida 1633; test: as above; settings: Pasteurella multocida 1633; nutrient agar 5% chocolated horse blood, 18 hours 37° C.; read-out: MIC
Experimental: as §2

[22] = test system: Ps. aeruginosa NCTC 10662; test: as above; settings: Pseudomonas aeruginosa
Experimental: as §2

[23] = test system: Sarcina lutea 8340; test: as above
Experimental: as §2

[24] = test system: Staph. aureus Oxford; test: as above; settings: Staphylococcus aureus; Staph. aureus Oxford; nutrient agar 5% chocolated horse blood, 18 hours 37° C.; read-out: MIC
Experimental: as §2

[25] = test system: Staph. aureus Russell; test: as above; settings: Staphylococcus aureus; Staph. aureus Russell; nutrient agar 5% chocolated horse blood, 18 hours 37° C.; read-out: MIC
Experimental: as §2

[26] = test system: Staph. aureus W2827; test: as above; settings: Staphylococcus aureus; Staph. aureus W2827; nutrient agar 5% chocolated horse blood, 18 hours 37° C.; read-out: MIC
Experimental: as §2

[27] = test system: Strep. faecalis 1; test: as above
Experimental: as §2

[28] = test system: Strep. pyogenes R80/421-A; test: as above; settings: Streptococcus pyogenes
Experimental: as §2

[29] = Strep. suis (group D) SPS11, DST Agar, 10^4 organisms, 18 hours 37° C., read-out: MIC
[30] = Haemophilus influenzae, Q1, 18 h
[31] = Bord. bronchiseptica BO9, DST Agar, 10^4 organisms, 18 hours 37° C., read-out: MIC
[32] = E. Coli E1, DST Agar, 10^4 organisms, 18 hours 37° C., read-out: MIC
[33] = NCTC10418, E. Coli NCTC 10418, DST Agar, 10^4 organisms, 18 hours 37° C., read-out: MIC
[34] = S. dublin S7, DST Agar, 10^4 organisms, 18 hours 37° C., read-out: MIC
[35] = Bacillus subtilis 6633, nutrient agar 5% chocolated horse blood, 18 hours 37° C., read-out: MIC
[36] = Corynebacterium xerosis 9755, nutrient agar 5% chocolated horse blood, 18 hours 37° C., read-out: MIC
[37] = NCTC10418, E. coli NCTC 10418, nutrient agar 5% chocolated horse blood, 18 hours 37° C., read-out: MIC
[38] = Haemophilus influenzae Q1, nutrient agar 5% chocolated horse blood, 18 hours 37° C., read-out: MIC
[39] = K. aerogenes A, nutrient agar 5% chocolated horse blood, 18 hours 37° C., read-out: MIC
[40] = Proteus mirabilis, P. mirabilis 889, nutrient agar 5% chocolated horse blood, 18 hours 37° C., read-out: MIC
[41] = NCTC10662, Ps. aeruginosa NCTC 10662, nutrient agar 5% chocolated horse blood, 18 hours 37° C., read-out: MIC
[42] = Micrococcus luteus, Sarcina lutea 8340, nutrient agar 5% chocolated horse blood, 18 hours 37° C., read-out: MIC
[43] = Enterococcus faecalis, Strep. faecalis 1, nutrient agar 5% chocolated horse blood, 18 hours 37° C., read-out: MIC
[44] = M. suipneumoniae LABER, in vitro, 6 days 37° C., read-out: MIC
[45] = M. hyorhinis ATCC 23234, in vitro, 6 days 37° C., read-out: MIC
[46] = 144 h, M. gallisepticum S6, in vitro, 6 days 37° C., read-out: MIC
[47] = Bord. bronchiseptica BO8, DST Agar, 10^4 organisms, 18 hours 37° C., read-out: MIC

Row | Structure (SMILES) | MIC [8] | MIC [10] | MIC [11] | MIC [12] | MIC [13, 29] | MIC [14] | MIC [21] | MIC [24] | MIC [25] | MIC [26] | MIC ([28]; R80/421A, 18 h) | MIC [5, 31] | MIC [6, 32] | MIC [7, 33] | MIC [9, 34] | MIC [16, 36] | MIC [17, 37] | MIC [19, 39] | MIC [20, 40] | MIC [22, 41] | also measured
1 | C/C(=C\C(=O)OCc1ccccc1[N+](=O)[O-])CC1OCC(CC2OC2C(C)C(C)O)C(O)C1O (stereo not shown) [C, O--nitrobenzyl monate A, reference compound] | 1.25 µg/mL (≈ 2.61 µM) | 0.625 µg/mL (≈ 1.3 µM) | 0.625 µg/mL (≈ 1.3 µM) | 0.625 µg/mL (≈ 1.3 µM) | 20 µg/mL (≈ 41.7 µM) | 0.07 µg/mL (≈ 0.146 µM) | 2.5 µg/mL (≈ 5.21 µM) | 2.5 µg/mL (≈ 5.21 µM) | 2.5 µg/mL (≈ 5.21 µM) | 5 µg/mL (≈ 10.4 µM) | 0.5 µg/mL (≈ 1.04 µM) | – | – | – | – | – | – | – | – | – | MIC [1]: 0.25 µg/mL (≈ 0.521 µM); MIC [2]: 0.25 µg/mL (≈ 0.521 µM); MIC ([3]; S6, 144 h): 5 µg/mL (≈ 10.4 µM); MIC ([4]; BO8, 18 h): 80 µg/mL (≈ 167 µM); MIC ([5]; BO9, 18 h): 10 µg/mL (≈ 20.9 µM); MIC ([6]; 18 h): > 80 µg/mL; MIC ([7]; NCTC10418, 18 h): > 80 µg/mL; MIC ([9]; S7, 18 h): > 80 µg/mL; MIC ([15]; Bacillus subtilis, 6633, 18 h): 2.5 µg/mL (≈ 5.21 µM); MIC ([16]; Corynebacterium xerosis, 9755, 18 h): > 100 µg/mL; MIC ([17]; NCTC10418, 18 h): > 100 µg/mL; MIC [18, 30]: 0.5 µg/mL (≈ 1.04 µM); MIC ([19]; 18 h): > 100 µg/mL; MIC ([20]; Proteus mirabilis, 889, 18 h): > 100 µg/mL; MIC ([22]; NCTC10662, 18 h): > 100 µg/mL; MIC ([23]; Micrococcus luteus, 8340, 18 h): > 100 µg/mL; MIC ([27]; Enterococcus faecalis, 1, 18 h): > 100 µg/mL
2 | C/C(=C\C(=O)OCc1ccc([N+](=O)[O-])cc1)CC1OCC(CC2OC2C(C)C(C)O)C(O)C1O (stereo not shown) [Example 1, p-nitrobenzyl monate A] | > 0.019 µg/mL | 0.156 µg/mL (≈ 0.325 µM) | 0.156 µg/mL (≈ 0.325 µM) | 0.07 µg/mL (≈ 0.146 µM) | – | 0.039 µg/mL (≈ 0.0813 µM) | 0.5 µg/mL (≈ 1.04 µM) | 0.5 µg/mL (≈ 1.04 µM) | 0.5 µg/mL (≈ 1.04 µM) | 0.5 µg/mL (≈ 1.04 µM) | 0.25 µg/mL (≈ 0.521 µM) | 1.25 µg/mL (≈ 2.61 µM) | 40 µg/mL (≈ 83.4 µM) | 40 µg/mL (≈ 83.4 µM) | 40 µg/mL (≈ 83.4 µM) | > 100 µg/mL | 25 µg/mL (≈ 52.1 µM) | 100 µg/mL (≈ 209 µM) | 100 µg/mL (≈ 209 µM) | > 100 µg/mL | MIC [1]: 0.05 µg/mL (≈ 0.104 µM); MIC [2]: 0.05 µg/mL (≈ 0.104 µM); MIC ([3]; S6, 144 h): 0.25 µg/mL (≈ 0.521 µM); MIC ([4]; BO8, 18 h): 5 µg/mL (≈ 10.4 µM); MIC ([13]; 18 h): 1.25 µg/mL (≈ 2.61 µM); MIC [15, 35]: 0.5 µg/mL (≈ 1.04 µM); MIC [18, 38]: 0.1 µg/mL (≈ 0.209 µM); MIC [23, 42]: > 100 µg/mL; MIC [27, 43]: 50 µg/mL (≈ 104 µM)
3 | C/C(=C\C(=O)OCc1cccc([N+](=O)[O-])c1)CC1OCC(CC2OC2C(C)C(C)O)C(O)C1O (stereo not shown) [Example 2, m-nitrobenzyl monate A] | 0.312 µg/mL (≈ 0.651 µM) | 0.625 µg/mL (≈ 1.3 µM) | 0.625 µg/mL (≈ 1.3 µM) | 0.312 µg/mL (≈ 0.651 µM) | 5 µg/mL (≈ 10.4 µM) | 0.07 µg/mL (≈ 0.146 µM) | 10 µg/mL (≈ 20.9 µM) | 10 µg/mL (≈ 20.9 µM) | 10 µg/mL (≈ 20.9 µM) | 25 µg/mL (≈ 52.1 µM) | – | 5 µg/mL (≈ 10.4 µM) | 40 µg/mL (≈ 83.4 µM) | 40 µg/mL (≈ 83.4 µM) | 80 µg/mL (≈ 167 µM) | > 100 µg/mL | > 100 µg/mL | > 100 µg/mL | > 100 µg/mL | > 100 µg/mL | MIC [1, 44]: 0.025 µg/mL (≈ 0.0521 µM); MIC [2, 45]: ≤ 0.01 µg/mL; MIC [3, 46]: 2.5 µg/mL (≈ 5.21 µM); MIC [4, 47]: 20 µg/mL (≈ 41.7 µM); MIC [15, 35]: 5 µg/mL (≈ 10.4 µM); MIC [18, 38]: 2.5 µg/mL (≈ 5.21 µM); MIC [23, 42]: > 100 µg/mL; MIC [27, 43]: > 100 µg/mL; MIC ([28]; Strep. pyogenes R80/421-A, nutrient agar 5% chocolated horse blood, 18 hours 37° C., read-out: MIC): 2.5 µg/mL (≈ 5.21 µM)
4 | C/C(=C\C(=O)OC(C)c1cccc([N+](=O)[O-])c1)CC1OCC(CC2OC2C(C)C(C)O)C(O)C1O (stereo not shown) [Example 3, 1-(m-nitrophenyl)ethyl monate A] | 2.5 µg/mL (≈ 5.07 µM) | 2.5 µg/mL (≈ 5.07 µM) | 2.5 µg/mL (≈ 5.07 µM) | 1.25 µg/mL (≈ 2.53 µM) | 40 µg/mL (≈ 81 µM) | 0.312 µg/mL (≈ 0.632 µM) | 25 µg/mL (≈ 50.7 µM) | 2.5 µg/mL (≈ 5.07 µM) | 2.5 µg/mL (≈ 5.07 µM) | 5 µg/mL (≈ 10.1 µM) | 1 µg/mL (≈ 2.03 µM) | 80 µg/mL (≈ 162 µM) | > 80 µg/mL | > 80 µg/mL | > 80 µg/mL | > 100 µg/mL | > 100 µg/mL | > 100 µg/mL | > 100 µg/mL | > 100 µg/mL | MIC [1, 44]: 0.1 µg/mL (≈ 0.203 µM); MIC [2, 45]: 0.1 µg/mL (≈ 0.203 µM); MIC [3, 46]: > 10 µg/mL; MIC [4, 47]: > 80 µg/mL; MIC ([15]; Bacillus subtilis, 6633, 18 h): 1 µg/mL (≈ 2.03 µM); MIC [18, 30]: 1 µg/mL (≈ 2.03 µM); MIC [23, 42]: > 100 µg/mL; MIC [27, 43]: > 100 µg/mL
